Test results: PMC12494543, “Identification of ALKBH6 as a nucleotide demethylase with a distinct substrate preference” (The Journal of Biological Chemistry, 2025)
Blank lines part the entries; values can stand above or below the compound they belong to.

Legend:
ALKBH6 [1] = target: T1, ALKBH6 (Homo sapiens, UniProt Q3KRA9); assay: Demethylation assay by HPLC analysis; format: biochemical; settings: substrate 250 and 500 μM, 30 min
T1 construct: His-tag; made in house
Method: (§1) Following ALKBH6-mediated demethylation, NMPs and dNMPs were analyzed in an HPLC system (Shimadzu) equipped with a reversed-phase Shim-pack GIST C18 5 μm separation column (250 × 4.6 mm). For majority of the nucleotides including 1me-AMP, 1me-dAMP, 7me-dGMP, 6me-AMP, 7me-GMP, 3me-dCMP, dAMP, dCMP AMP, GMP, the column was equilibrated with mobile phase A (50 mM ammonium acetate) and mobile phase B (50 mM ammonium acetate, 50% of acetonitrile and 0.1% trifluoroacetic acid. For dGMP, different mobile phase A (50 mM ammonium acetate, 3% methanol, pH-5.0) and mobile phase B (methanol) were used. The peaks were identified based on the elution time of the standards (Fig. S9) purchased from Sigma and further analyzed using LabSolutions software (www.shimadzu.com) and analyzed by mass spectrometry.

ALKBH6 [2] = target: T1, ALKBH6; assay: Intrinsic tryptophan fluorescence quenching (Stern-Volmer); format: binding; settings: WT ALKBH6, 2OG omitted
Method: (§2) All tryptophan fluorescence spectroscopy experiments were performed using a multimode plate reader (PerkinElmer). The excitation and emission wavelengths were fixed at 280 nm and 356 nm, respectively. To measure ALKBH6–ligand interactions, recombinant ALKBH6 (500 nM), and increasing concentrations of ligand (0–80 μM) were equilibrated in binding buffer (50 mM Hepes, pH 7.6, 300 mM KCl) for 1 h. For Stern–Volmer quenching analysis, the F0/F = 1 + KSV(L) formula was used, where, KSV is the Stern–Volmer constant, L is the concentration of the quencher, F0 and F represent the steady-state fluorescence intensities in the absence and presence of quencher, respectively. All the data were calculated with best-fit parameter values and 95% confidence intervals in GraphPad Prism software.

ALKBH6 [3] = target: T1, ALKBH6; assay: FDH-coupled formaldehyde release demethylation assay; format: biochemical; settings: for formaldehyde release / demethylation by ALKBH6: FDH-coupled assay, tested as substrate; for inhibition of ALKBH6-mediated demethylation: me-dNMPs as substrate
Method: (§3) NMPs including 1meAMP (Jena Bioscience, NU-1029-1,) 7meGMP (Jena Bioscience, NU-1135S), 6me-AMP (Sigma, M2780) were purchased. N-methylated deoxy-NMPs were prepared by methylating chemically synthesized 30-mer oligonucleotide containing either dA, dG, dC, or dT by MMS (5%, v/v) (0.59 M) MMS (Sigma, 129925) and purified as described before ([17]). The oligonucleotides were digested with nuclease P1 (NEB) at 37 °C for 4 h to produce deoxy-NMPs. After heat inactivating the nuclease, dNMPs were purified by HPLC and used for the demethylation reaction. N-methylated NMPs were purified similarly, using RNA as the starting material. For the demethylation reaction, ALKBH6 (1 μM) and me-dNMPs (1 mM) were mixed in the dioxygenase reaction buffer and incubated at 37 °C for 30 min. Formaldehyde release was detected by FDH-coupled DNA repair assay as described before ([32], [33]). Briefly, 1 mM NAD+ and 0.01 U FDH were added to the dioxygenase reaction buffer containing methylated nucleotide and ALKBH6. NADH generated was detected by the characteristic absorption peak (340 nm) using a 96-well multimode reader (Synergy, Biotek Instrument). Formaldehyde production was quantified from the standard curve and the initial velocities were determined using various substrate concentrations. The results were plotted and analyzed using GraphPad Prism.

AlkB = AlkB substrate; cited from earlier work
ALKBH3 = test system: ALKBH3; set-up: method as in PMID 28269980; settings: cited from earlier work
ALKBH6 Y120A [4] = target: T2, ALKBH6 Y120A (Homo sapiens, UniProt Q3KRA9, Y120A); assay: Demethylation assay by HPLC analysis; format: biochemical; settings: substrate 500 μM
T2 construct: His-tag; made in house
Method: as §1

ALKBH6 Y120A [5] = target: T2, ALKBH6 Y120A; assay: Intrinsic tryptophan fluorescence quenching (Stern-Volmer); format: binding
Method: as §2

ALKBH6 E115A = target: T3, ALKBH6 E115A (Homo sapiens, UniProt Q3KRA9, E115A); assay: as above; format: binding
T3 construct: His-tag; made in house
Method: as §2

ALKBH6 E115 mutant = target: T4, ALKBH6 E115 mutant (Homo sapiens, UniProt Q3KRA9, E115A); assay: FDH-coupled formaldehyde release demethylation assay; format: biochemical; settings: substrate 500 μM
T4 construct: His-tag; made in house
Method: as §3

ALKBH6 Y120A [6] = target: T2, ALKBH6 Y120A; assay: Thermal shift analysis (DSF, SYPRO Orange); format: binding
Method: (§4) All the experiments were performed in Eco Real-Time PCR system as described before ([55]). Purified recombinant His-tag ALKBH6 or ALKBH6-Y120A (5 μM) was incubated with varying concentrations (0–50 μM) of 7methyl-GMP in binding buffer (50 mM Hepes pH7.6, and 75 mM KCl). SYPRO Orange was added to the reaction (20 μl) and melting derivatives (-dRFU/dT) of fluorescence emission were determined by measuring the fluorescence with temperature increment of 0.1 °C from 40 °C to 100 °C. The ΔTm was calculated by subtracting Tm of ALKBH6 from Tm of ALKBH6 with 7methyl-GMP. The changes of Tm (ΔTm) were plotted against increasing concentrations of 7methyl-GMP and dissociation constant was determined by using one site specific binding formula of GraphPad Prism software.

ALKBH6 [7] = target: T1, ALKBH6; assay: Thermal shift analysis (DSF, SYPRO Orange); format: binding; settings: from ΔTm vs ligand concentration; read-out: apparent dissociation constant
Method: as §4

MTH1 = test system: MTH1; set-up: method as in PMID 30304478; settings: MTH1 substrate; cited from earlier work
ALKBH6 [8] = assay: ALKBH6 knockdown by shRNA, qPCR; format: cell-based, human; settings: MCF7 cells, 48 h after transfection, vs Sh-control
Excerpt: The GFP-tagged ALKBH6 expression plasmids were constructed by cutting the PCR-amplified WT ALKBH6 with XhoI and EcoRI, and then cloned in-frame and upstream of the sequence encoding the GFP pEGFP-N1 (Clontech). ALKBH6 shRNA constructs were generated using reported sequences (shALKBH6#1 5′ AGGAGTATTTGCTTCGACA 3′, shALKBH6#2 5′ […] 3′) and cloned into the pSilencer 2.1-U6 puro shRNA vector. All the shRNA constructs were confirmed by sequencing (Fig. S6). For negative control, pSilencer 2.1-U6 puro vector was used.
MCF7 cells were maintained in Dulbecco's modified Eagle's medium (DMEM) with 10% fetal bovine serum at 37 °C in a humidified air containing 5% CO2. Stable ALKBH6 knockdown cell line was generated by inserting the target sequence for ALKBH6 or the scramble control into the pSilencer2.puro (pSil) vector (Ambion) to form short hairpin RNAs for RNAi. For plasmid transfection in MCF7 cells, cells were suspended in DMEM without fetal bovine serum or antibiotics at a concentration of 1 × 10^7 cells/ml. A volume of 0.1 ml was transferred to a sterile electroporation cuvette (Bio-Rad Gene Pulser cuvette) and kept at room temperature for 5 min in the presence of 15 μg plasmid. Electroporation was performed using the Gene Pulser Xcell System (Bio-Rad) with 220 V/cm, 950 μF capacitance, and infinite resistance. […]

[9] = substrate of ALKBH6, Michaelis-Menten

T2 sequence (Q3KRA9 whole entry Y120A): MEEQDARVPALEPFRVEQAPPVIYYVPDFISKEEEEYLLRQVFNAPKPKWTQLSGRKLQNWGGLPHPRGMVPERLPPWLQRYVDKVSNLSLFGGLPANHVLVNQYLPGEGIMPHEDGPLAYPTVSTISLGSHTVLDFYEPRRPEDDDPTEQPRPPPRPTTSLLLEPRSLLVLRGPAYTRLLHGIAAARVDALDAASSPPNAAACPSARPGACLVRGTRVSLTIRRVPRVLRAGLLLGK
T1 sequence (Q3KRA9 whole entry): as the sequence (Q3KRA9 whole entry Y120A) above, with A120Y counted along it
T3 sequence (Q3KRA9 whole entry E115A): as the sequence (Q3KRA9 whole entry Y120A) above, with E115A, A120Y counted along it
T4 sequence (Q3KRA9 whole entry E115A): as the sequence (Q3KRA9 whole entry Y120A) above, with E115A, A120Y counted along it

- inhibition of ALKBH6-mediated demethylation (ALKBH6 [3]): inhibited
Compound: O=C(O)CCC(O)C(=O)O (stereo not shown) [2HG, 2-hydroxyglutarate, reference compound]

- demethylation by ALKBH6 (HPLC) (ALKBH6 [1]): efficiently demethylate
- formaldehyde release / demethylation by ALKBH6 (ALKBH6 [3]): Formaldehyde release was observed
Compound: Cn1c(=N)ccn([C@H]2C[C@H](O)[C@@H](COP(=O)(O)O)O2)c1=O [3me-dCMP]

- demethylation by ALKBH6 (HPLC) (ALKBH6 [1]): did not observe any demethylation
- formaldehyde release / demethylation by ALKBH6 (ALKBH6 [3]): did not observe any demethylation
Compound: CNc1ncnc2c1ncn2[C@@H]1O[C@H](COP(=O)(O)O)[C@@H](O)[C@H]1O [6me-AMP]

- demethylation (HPLC end product) (ALKBH6 Y120A [4]): little demethylation
- demethylation by ALKBH6 (HPLC) (ALKBH6 [1]): converted
- Stern-Volmer constant (Ksv) (ALKBH6 Y120A [5]): negative
- Stern-Volmer constant (Ksv) (ALKBH6 [2]): 0.036 ± 0.009 µM⁻¹
- Stern-Volmer constant (Ksv) (ALKBH6 E115A): 0.035 ± 0.008 µM⁻¹
- demethylation activity over time (ALKBH6 E115 mutant): comparable to WT ALKBH6
- formaldehyde release / demethylation by ALKBH6 (ALKBH6 [3]): Formaldehyde release was observed
- ΔTm shift (ALKBH6 Y120A [6]): no significant ΔTm shift
- Kd (ALKBH6 [7]): 620 nM
Compound: C[n+]1cn([C@@H]2O[C@H](COP(=O)(O)O)[C@@H](O)[C@H]2O)c2nc(N)[nH]c(=O)c21 [7me-GMP, N-7-methyl-GMP]

- Stern-Volmer constant (Ksv) (ALKBH6 [2]): 0.007 µM⁻¹
- formaldehyde release / demethylation by ALKBH6 (ALKBH6 [3]): comparatively less
Compound: Cn1c[n+]([C@@H]2O[C@H](COP(=O)([O-])OP(=O)(O)OP(=O)(O)O)[C@@H](O)[C@H]2O)c2nc(N)[nH]c(=O)c21 [7me-GTP]

- demethylation by ALKBH6 (HPLC) (ALKBH6 [1]): efficiently demethylate
- formaldehyde release / demethylation by ALKBH6 (ALKBH6 [3]): Formaldehyde release was observed
- Km (ALKBH6 [3]; [9]): 1.03 µM
- kcat (ALKBH6 [3]; [9]): 0.18 s⁻¹
Compound: C[n+]1cn([C@H]2C[C@H](O)[C@@H](COP(=O)(O)O)O2)c2nc(N)[nH]c(=O)c21 [7me-dGMP]

- formaldehyde release / demethylation by ALKBH6 (ALKBH6 [3]): could not demethylate
Compound: Cn1c[n+]([C@@H]2O[C@H](CO)[C@@H](O)[C@H]2O)c2nc(N)[nH]c(=O)c21 [7me-guanosine, reference compound]

- inhibition of ALKBH6-mediated demethylation (ALKBH6 [3]): inhibited
Compound: O=C(O)CCC(=O)O [succinate, reference compound]

Further lines, the compound ahead of its results:

Compound: C[n+]1cnc2c(ncn2[C@@H]2O[C@H](COP(=O)(O)O)[C@@H](O)[C@H]2O)c1N [1me-AMP, N-1-methyl-adenosine monophosphate]
- demethylation by ALKBH6 (HPLC) (ALKBH6 [1]): converted to AMP
- Stern-Volmer constant (Ksv) (ALKBH6 [2]): 0.011 ± 0.002 µM⁻¹

Compound: Cn1cnc2c(ncn2[C@@H]2O[C@H](COP(=O)(O)OP(=O)(O)OP(=O)(O)O)[C@@H](O)[C@H]2O)c1=N [1me-ATP]
- formaldehyde release / demethylation by ALKBH6 (ALKBH6 [3]): comparatively less

Compound: Cn1c(N)nc2c(ncn2[C@@H]2O[C@H](COP(=O)(O)OP(=O)(O)OP(=O)(O)O)[C@@H](O)[C@H]2O)c1=O [1me-GTP]
- Stern-Volmer constant (Ksv) (ALKBH6 [2]): 0.004 µM⁻¹

Compound: Cn1cnc2c(ncn2[C@@H]2O[C@H](CO)[C@@H](O)[C@H]2O)c1=N [1me-adenosine, reference compound]
- formaldehyde release / demethylation by ALKBH6 (ALKBH6 [3]): could not demethylate

Compound: Cn1cnc2c(ncn2[C@H]2C[C@H](O)[C@@H](COP(=O)(O)O)O2)c1=N [1me-dAMP]
- Km (AlkB): 2 µM
- kcat (AlkB): 0.07 s⁻¹
- demethylation by ALKBH6 (HPLC) (ALKBH6 [1]): efficiently demethylate
- formaldehyde release / demethylation by ALKBH6 (ALKBH6 [3]): Formaldehyde release was observed

Compound: Cn1c(=N)cc[nH]c1=O [3meC, N-3-methylcytosine]
- kcat (ALKBH3): approximately 1.7 min^−1

Compound: COc1nc(N)nc2c1ncn2[C@H]1C[C@H](O)[C@@H](COP(=O)(O)OP(=O)(O)OP(=O)(O)O)O1 [O6-methyl-dGTP]
- Km (MTH1): 13.2 µM
- kcat (MTH1): 8.3 s⁻¹

Compound: COc1nc(N)nc2c1ncn2[C@@H]1O[C@H](COP(=O)(O)OP(=O)(O)OP(=O)(O)O)[C@@H](O)[C@H]1O [O^6-methyl-GTP]
- kcat (MTH1): 0.3 s⁻¹

Compound: Sh #1: shRNA to ALKBH6, 5′ AGGAGTATTTGCTTCGACA 3′ in pSilencer 2.1-U6 puro vector (shRNA in pSilencer vector; only target-sense given)
- reduction of ALKBH6 expression (knockdown) (ALKBH6 [8]): 75%

Compound: Sh #2: shRNA to ALKBH6, 5′ GCACCACCTGTAATCTACTAT 3′ in pSilencer 2.1-U6 puro vector (shRNA in pSilencer vector; only target-sense given)
- reduction of ALKBH6 expression (knockdown) (ALKBH6 [8]): more than 90%
